Measured values published in US12077503B2, “Substituted cyclic amides and their use as herbicides” (FMC CORPORATION, priority 2015, dated 2024).

Tests used:
Assay type in all cases: in vivo
[1] = tested on: barnyardgrass (Echinochloa crus-galli); assay: Test A postemergence; details: Echinochloa crus-galli, post-emergence, 240 h, 125 g ai/ha, postemergence; visual injury after approximately 10 d; 0 to 100 scale (0 no effect, 100 complete control); read-out: Plant response rating, Barnyardgrass
In short: (§1)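 Seeded soil received test chemicals as a preemergence directed spray, and seedlings at one to two leaves, 2–10 cm tall, received them postemergence, in a non-phytotoxic, surfactant-containing solvent mixture. Pots were held in a greenhouse for approximately 10 d, then rated for injury from 0, no effect, to 100, complete control.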

[2] = tested on: wheat (Triticum aestivum); assay: Test A postemergence; details: Triticum aestivum, post-emergence, 240 h, 125 g ai/ha, postemergence; visual injury after approximately 10 d; 0 to 100 scale (0 no effect, 100 complete control); read-out: Plant response rating, Wheat
In short: as §1

[3] = tested on: giant foxtail (Setaria faberii); assay: Test A postemergence; details: Setaria faberi, post-emergence, 240 h, 125 g ai/ha, postemergence; visual injury after approximately 10 d; 0 to 100 scale (0 no effect, 100 complete control); read-out: Plant response rating, Foxtail, Giant
In short: as §1

[4] = tested on: Galium (catchweed bedstraw, Galium aparine); assay: Test A postemergence; details: Galium, post-emergence, 240 h, 125 g ai/ha, postemergence; visual injury after approximately 10 d; 0 to 100 scale (0 no effect, 100 complete control); read-out: Plant response rating, Galium
In short: as §1

[5] = tested on: ryegrass, Italian (Italian ryegrass, Lolium multiflorum); assay: Test A preemergence; details: Lolium multiflorum, pre-emergence, 240 h, preemergence, read-out: Plant response rating, Ryegrass, Italian; for pest or weed control at 125 g/ha: 125 g ai/ha, visual rating after approx. 10 d, 0 to 100 scale where 0 is no effect and 100 is complete control; for pest or weed control at 500 g/ha: 500 g ai/ha, 0 to 100 scale, 0 = no effect, 100 = complete control
In short: as §1

[6] = tested on: barnyardgrass (Echinochloa crus-galli); assay: Test A preemergence; details: Echinochloa crus-galli, pre-emergence, 240 h, preemergence, read-out: Plant response rating, Barnyardgrass; for pest or weed control at 125 g/ha: 125 g ai/ha, visual rating after approx. 10 d, 0 to 100 scale where 0 is no effect and 100 is complete control; for pest or weed control at 500 g/ha: 500 g ai/ha, 0 to 100 scale, 0 = no effect, 100 = complete control
In short: as §1

[7] = tested on: pigweed (Amaranthus retroflexus); assay: Test A preemergence; details: Amaranthus retroflexus, pre-emergence, 240 h, preemergence, read-out: Plant response rating, Pigweed; for pest or weed control at 125 g/ha: 125 g ai/ha, visual rating after approx. 10 d, 0 to 100 scale where 0 is no effect and 100 is complete control; for pest or weed control at 500 g/ha: 500 g ai/ha, 0 to 100 scale, 0 = no effect, 100 = complete control
Kochia (Kochia scoparia) = assay: Test A preemergence; details: Bassia scoparia, pre-emergence, 240 h, preemergence, read-out: Plant response rating, Kochia; for pest or weed control at 125 g/ha: 125 g ai/ha, visual rating after approx. 10 d, 0 to 100 scale where 0 is no effect and 100 is complete control; for pest or weed control at 500 g/ha: 500 g ai/ha, 0 to 100 scale, 0 = no effect, 100 = complete control
In short: as §1

[8] = tested on: giant foxtail (Setaria faberii); assay: Test A preemergence; details: Setaria faberi, pre-emergence, 240 h, preemergence, read-out: Plant response rating, Foxtail, Giant; for pest or weed control at 125 g/ha: 125 g ai/ha, visual rating after approx. 10 d, 0 to 100 scale where 0 is no effect and 100 is complete control; for pest or weed control at 500 g/ha: 500 g ai/ha, 0 to 100 scale, 0 = no effect, 100 = complete control
In short: as §1

[9] = tested on: ragweed (common ragweed, Ambrosia elatior); assay: Test A preemergence; details: Ambrosia artemisiifolia, pre-emergence, 240 h, preemergence, read-out: Plant response rating, Ragweed; for pest or weed control at 125 g/ha: 125 g ai/ha, visual rating after approx. 10 d, 0 to 100 scale where 0 is no effect and 100 is complete control; for pest or weed control at 500 g/ha: 500 g ai/ha, 0 to 100 scale, 0 = no effect, 100 = complete control
In short: as §1

[10] = tested on: barnyardgrass (Echinochloa crus-galli); assay: Test B flooded paddy test; details: Echinochloa crus-galli, Flood, 250 g ai/ha; scale of 0 to 100 where 0 is no effect and 100 is complete control; read-out: Barnyardgrass plant response rating
In short: (§2)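 2-leaf plants; pots flooded 3 cm over soil; cpd added to paddy water; depth held; greenhouse 13–15 d; visual rating vs controls, 0 = no effect, 100 = complete control.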

[11] = tested on: ducksalad (Heteranthera limosa); assay: Test B flooded paddy test; details: Heteranthera limosa, Flood, 250 g ai/ha; scale of 0 to 100 where 0 is no effect and 100 is complete control; read-out: Ducksalad plant response rating
In short: as §2

rice (Oryra sativa) = assay: Test B flooded paddy test; details: Oryza sativa, Flood, 250 g ai/ha; scale of 0 to 100 where 0 is no effect and 100 is complete control; read-out: Rice plant response rating
In short: as §2

[12] = tested on: sedge, umbrella (small-flower umbrella sedge, Cyperus difformis); assay: Test B flooded paddy test; details: Cyperus difformis, Flood, 250 g ai/ha; scale of 0 to 100 where 0 is no effect and 100 is complete control; read-out: Sedge, Umbrella plant response rating
In short: as §2

Row | Compound | pest or weed control at 125 g/ha [1] [%] | plant injury at 125 g/ha [2] [%] | pest or weed control at 125 g/ha [3] [%] | pest or weed control at 125 g/ha [4] [%] | pest or weed control at 125 g/ha [5] [%] | pest or weed control at 500 g/ha [5] [%] | pest or weed control at 125 g/ha [6] [%] | pest or weed control at 500 g/ha [6] [%] | pest or weed control at 125 g/ha [7] [%] | pest or weed control at 500 g/ha [7] [%] | pest or weed control at 125 g/ha (Kochia (Kochia scoparia)) [%] | pest or weed control at 500 g/ha (Kochia (Kochia scoparia)) [%] | pest or weed control at 125 g/ha [8] [%] | pest or weed control at 500 g/ha [8] [%] | pest or weed control at 125 g/ha [9] [%] | pest or weed control at 500 g/ha [9] [%] | pest or weed control at 250 g/ha [10] [%] | pest or weed control at 250 g/ha [11] [%] | pest or weed control at 250 g/ha (rice (Oryra sativa)) [%] | pest or weed control at 250 g/ha [12] [%]
1 | CN1C[C@H](c2ccc(C(F)(F)F)cc2)[C@@H](C(=O)Nc2ccccc2C(F)(F)F)C1=O [Compound 726] | 90 | 30 | 90 | 50 | 50 | 80 | 90 | 90 | 80 | 90 | 70 | 90 | 90 | 90 | 30 | 50 | 55 | 100 | 0 | 0
2 | Cc1ccc([C@H]2CNC(=O)[C@@H]2C(=O)Nc2cccc(F)c2F)s1 [Compound 729] | 0 | 0 | 0 | 0 | 0 | 0 | 0 | 0 | 0 | 0 | 0 | 0 | 0 | 0 | 0 | 0 | 60 | 100 | 0 | 0
3 | CSc1ccccc1NC(=O)[C@H]1C(=O)N(C)C[C@@H]1c1ccc(C)c(C)c1 [Compound 733] | 90 | 20 | 80 | 20 | 40 | 60 | 90 | 100 | 20 | 60 | 20 | 80 | 90 | 90 | 70 | 80 | 20 | 60 | 0 | 0
4 | CSc1ccccc1NC(=O)[C@H]1C(=O)N(C)C[C@@H]1c1cc(F)cc(F)c1 [Compound 738] | 80 | 0 | 70 | 50 | 0 | 20 | 90 | 100 | 0 | 50 | 0 | 70 | 90 | 100 | 0 | 70 | 40 | 100 | 0 | 0
5 | CN1C[C@H](c2cc(F)cc(F)c2)[C@@H](C(=O)Nc2ccccc2S(C)(=O)=O)C1=O [Compound 739] | 90 | 0 | 90 | 50 | 0 | 30 | 90 | 100 | 0 | 30 | 30 | 80 | 90 | 100 | 50 | 80 | 60 | 100 | 0 | 0
6 | CN1C[C@H](c2ccc3c(c2)CCC3)[C@@H](C(=O)Nc2ccccc2F)C1=O [Compound 742] | 90 | 60 | 90 | 50 | 50 | 90 | 90 | 90 | 20 | 50 | 60 | 90 | 90 | 90 | 20 | 80 | 60 | 100 | 0 | 0
7 | CN1C[C@H](c2ccc3c(c2)CCC3)[C@@H](C(=O)Nc2cccc(F)c2F)C1=O [Compound 743] | 90 | 50 | 90 | 50 | 90 | 90 | 90 | 90 | 0 | 20 | 60 | 80 | 90 | 90 | 0 | 40 | 65 | 95 | 20 | 0
